In publication PMC5833756, “A novel ruthenium complex with xanthoxylin induces S-phase arrest and causes ERK1/2-mediated apoptosis in HepG2 cells through a p53-independent pathway” (Cell Death & Disease, 2018):
Several values for one entry are separate records, joined by “and”; a condition that tells them apart may be missing. Equal entries are not always repeated. Where two headings read alike, the source gives them in different places.

Assays:
[1] = system: SCC-9; type: cell-based, human; conditions: SCC-9 (human oral squamous cell carcinoma), 72 h
[2] = system: MRC-5; type: cell-based; conditions: MRC-5 (human lung fibroblast, non-cancer), 72 h
[3] = system: HaCAT; type: cell-based; conditions: HaCAT (human keratinocyte, non-cancer), 72 h
[4] = system: HepG2 cells; experiment: Gene expression analysis by qPCR array (TaqMan Array Human Molecular Mechanisms of Cancer); type: cell-based; conditions: HepG2, 12 h; RCX 12 µM, DOX 2 µM
Description: HepG2 cells were plated in bottles for cell culture (7 × 10^4 cells/mL). […] The RNA was evaluated by fluorimetry using QuBit (Life Technologies; Camarillo, CA, USA). RNA reverse transcription was performed using a Superscript VILO™ Kit (Invitrogen Corporation; Waltham, MA, USA). A 96-well plate TaqMan® Array Human Molecular Mechanisms of Cancer (ID 4418806, Applied Biosystems^TM, Foster City, CA, USA) was used for the gene expression study by qPCR. The reactions were conducted in an ABI ViiA7 system (Applied Biosystems^TM; Foster City, CA, USA). The cycle conditions comprised 2 min at 50 °C, 20 s at 95 °C, then 40 cycles of 3 s at 95 °C and 30 s at 60 °C. The relative quantification (RQ) of mRNA expression was calculated by the 2^-ΔΔCT method[40] using Gene Expression Suite™ Software (Applied Biosystems^TM), and the cells treated with the negative control (0.2% DMSO) were used as a calibrator. The reactions were normalized by the geometric mean of the RQ of the reference genes GAPDH, 18S and HPRT1. All experiments were performed in DNase/RNase-free conditions.

[5] = system: B16-F10; type: cell-based, mouse; conditions: B16-F10 (murine melanoma), 72 h
[6] = system: HepG2 cells; type: cell-based, human
Description: Briefly, the cells were harvested in a permeabilization solution containing 0.1% Triton X-100, 2 µg/mL PI, 0.1% sodium citrate and 100 µg/mL RNAse (all from Sigma-Aldrich) and incubated in the dark for 15 min at room temperature. Finally, cell fluorescence was measured by flow cytometry with a BD LSRFortessa cytometer using BD FACSDiva Software (BD Biosciences) and FlowJo Software 10 (FlowJo Lcc; Ashland, OR, USA). Ten thousand events were evaluated per experiment, and cellular debris was omitted from the analysis.

[7] = HepG2, 12 h, DOX 2 µM, OXA 10 µM, RCX 12 µM
[8] = HepG2, 24 h, DOX 2 µM, OXA 10 µM, RCX 12 µM
[9] = HepG2, 48 h, DOX 2 µM, OXA 10 µM, RCX 12 µM
[10] = HepG2, 72 h, DOX 2 µM, OXA 10 µM, RCX 12 µM

## COc1cc([O-])c(C(C)=O)c(OC)c1.F[P-](F)(F)(F)(F)F.[Ru+2].c1cnc2c(c1)ccc1cccnc12.c1cnc2c(c1)ccc1cccnc12 [RCX, cis-[Ru(phen)2(xant)](PF6)]
[1]
  IC50: 3.4 µM
[2]
  IC50: 21.3 µM
[3]
  IC50: 6.1 µM
[4]
  RQ ABL1 gene expression: 1.908
  RQ AKT1 gene expression: 1.685
  RQ AKT2 gene expression: 2.7 and 2.697
  RQ APC gene expression: 1.106
  RQ BAX gene expression: 0.887
  RQ BCAR1 gene expression: 2.9 and 2.846
  RQ BCL2L1 gene expression: 0.898
  RQ BCL2L11 gene expression: 9.8 and 9.786
  RQ BCL2 gene expression: 2.4 and 2.377
  RQ BID gene expression: 1.477
  RQ BRAF gene expression: 2.3 and 2.296
  RQ CASP8 gene expression: 1.493
  RQ CCND1 gene expression: 4.8 and 4.752
  RQ CCND3 gene expression: 2.4 and 2.397
  RQ CCNE1 gene expression: 0.674
  RQ CDC42 gene expression: 4.2 and 4.147
  RQ CDH1 gene expression: 1.051
  RQ CDK2 gene expression: 1.251
  RQ CDK4 gene expression: 2.7 and 2.737
  RQ CDKN1A gene expression: 0.628
  RQ CDKN1B gene expression: 0.5 and 0.543
  RQ CDKN2A gene expression: 3.8 and 3.836
  RQ CRK gene expression: 6.2 and 6.172
  RQ CTNNB1 gene expression: 1.930
  RQ CYCS gene expression: 1.927
  RQ DVL1 gene expression: 2.7 and 2.712
  RQ E2F1 gene expression: 7.1 and 7.081
  RQ EGFR gene expression: 2.0 and 1.985
  RQ ELK1 gene expression: 5.2 and 5.179
  RQ ERBB2 gene expression: 2.2 and 2.186
  RQ FADD gene expression: 1.854
  RQ FAS gene expression: 2.9 and 2.845
  RQ FGF2 gene expression: 5.5 and 5.503
  RQ FOS gene expression: 1.472
  RQ FYN gene expression: 2.2 and 2.240
  RQ FZD1 gene expression: 4.8 and 4.807
  RQ GRB2 gene expression: 0.855
  RQ GSK3B gene expression: 0.999
  RQ HRAS gene expression: 2.1 and 2.071
  RQ IGF1R gene expression: 1.052
  RQ ITGA2B gene expression: 5.4 and 5.437
  RQ ITGAV gene expression: 1.126
  RQ ITGB1 gene expression: 1.547
  RQ ITGB3 gene expression: 1.478
  RQ JUN gene expression: 4.5 and 4.475
  RQ KRAS gene expression: 4.8 and 4.786
  RQ MAP2K1 gene expression: 2.6 and 2.591
  RQ MAP3K5 gene expression: 1.752
  RQ MAPK1 gene expression: 2.1 and 2.124
  RQ MAPK3 gene expression: 1.762
  RQ MAPK8 gene expression: 1.293
  RQ MAPK14 gene expression: 3.0 and 3.025
  RQ MDM2 gene expression: 3.2 and 3.153
  RQ MYC gene expression: 4.3 and 4.304
  RQ NFKB1 gene expression: 2.2 and 2.156
  RQ NFKB2 gene expression: 3.6 and 3.621
  RQ NFKBIA gene expression: 1.342
  RQ NRAS gene expression: 1.862
  RQ PIK3CA gene expression: 1.265
  RQ PIK3R1 gene expression: 1.408
  RQ PTEN gene expression: 0.644
  RQ PTK2B gene expression: 0.803
  RQ PTK2 gene expression: 2.0 and 2.034
  RQ RAC1 gene expression: 1.199
  RQ RAF1 gene expression: 4.7 and 4.645
  RQ RB1 gene expression: 0.795
  RQ RELA gene expression: 2.4 and 2.403
  RQ RHOA gene expression: 1.541
  RQ SHC1 gene expression: 3.7 and 3.702
  RQ SMAD4 gene expression: 3.6 and 3.549
  RQ SOS1 gene expression: 5.0 and 4.992
  RQ SRC gene expression: 1.833
  RQ TCF3 gene expression: 3.2 and 3.166
  RQ TGFB1 gene expression: 1.267
  RQ TGFBR1 gene expression: 1.352
  RQ TGFBR2 gene expression: 1.069
  RQ TP53 gene expression: 0.5 and 0.471
  RQ VEGFA gene expression: 3.8 and 3.759
[5]
  IC50: 12.4 µM
[6]; [7]
  DNA content G0/G1: 66.4 ± 4.0%
  DNA content G2/M: 13.3 ± 1.1%
  DNA content S: 18.0 ± 7.4%
  DNA content Sub-G0/G1: 9.6 ± 1.1 %
[6]; HepG2, 12 h, RCX 24 µM
  DNA content G0/G1: 68.9 ± 2.2%
  DNA content G2/M: 13.9 ± 1.6%
  DNA content S: 8.6 ± 4.5%
  DNA content Sub-G0/G1: 13.0 ± 2.5 %
[6]; [8]
  DNA content G0/G1: 38.2 ± 1.2 %
  DNA content G2/M: 17.6 ± 0.9%
  DNA content S: 22.4 ± 0.7 %
  DNA content Sub-G0/G1: 15.3 ± 0.6 %
[6]; HepG2, 24 h, RCX 24 µM
  DNA content G0/G1: 29.9 ± 2.7 %
  DNA content G2/M: 13.0 ± 1.3%
  DNA content S: 13.0 ± 1.6%
  DNA content Sub-G0/G1: 34.7 ± 1.4 %
[6]; [9]
  DNA content G0/G1: 23.3 ± 2.0 %
  DNA content G2/M: 9.0 ± 0.8 %
  DNA content S: 11.5 ± 2.7%
  DNA content Sub-G0/G1: 44.1 ± 6.3 %
[6]; HepG2, 48 h, RCX 24 µM
  DNA content G0/G1: 18.9 ± 3.0 %
  DNA content G2/M: 6.5 ± 0.7 %
  DNA content S: 10.3 ± 1.3%
  DNA content Sub-G0/G1: 62.6 ± 3.4 %
[6]; [10]
  DNA content G0/G1: 23.6 ± 1.9 %
  DNA content G2/M: 11.1 ± 1.8%
  DNA content S: 13.2 ± 0.8%
  DNA content Sub-G0/G1: 42.6 ± 6.8 %
[6]; HepG2, 72 h, RCX 24 µM
  DNA content G0/G1: 19.7 ± 3.3 %
  DNA content G2/M: 6.7 ± 0.7%
  DNA content S: 4.9 ± 1.1 %
  DNA content Sub-G0/G1: 68.2 ± 3.7 %
